Source: PubChem BioAssay (NCI)
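The concentration for 50% growth inhibition is given as GI50. TGI marks complete inhibition of growth.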

Legend:
Experiment in all cases: NCI anticancer screen, dose series, 384-well format
[1] = system: 786-0 renal
[2] = system: A498 renal
[3] = system: A549 NSCLC
[4] = system: ACHN renal
[5] = system: BT-549 breast
[6] = system: CAKI-1 renal
[7] = system: CCRF-CEM leukemia
[8] = system: COLO 205 colon
[9] = system: DU-145 prostate
[10] = system: EKVX NSCLC
[11] = system: HCC-2998 colon
[12] = system: HCT-116 colon
[13] = system: HCT-15 colon
[14] = system: HL-60(TB) leukemia
[15] = system: HOP-62 NSCLC
[16] = system: HOP-92 NSCLC
[17] = system: HS 578T breast
[18] = system: HT29 colon
[19] = system: IGROV1 ovarian
[20] = system: K-562 leukemia
[21] = system: KM12 colon
[22] = system: LOX IMVI melanoma
[23] = system: M14 melanoma
[24] = system: MALME-3M melanoma
[25] = system: MCF7 breast
[26] = system: MDA-MB-231 breast
[27] = system: MDA-MB-435 melanoma
[28] = system: MDA-MB-468 breast
[29] = system: MOLT-4 leukemia
[30] = system: NCI-H226 lung
[31] = system: NCI-H23 lung
[32] = system: NCI-H322M lung
[33] = system: NCI-H460 NSCLC
[34] = system: NCI-H522 lung
[35] = system: NCI/ADR-RES ovarian
[36] = system: OVCAR-3 ovarian
[37] = system: OVCAR-4 ovarian
[38] = system: OVCAR-5 ovarian
[39] = system: OVCAR-8 ovarian
[40] = system: PC-3 prostate
[41] = system: RPMI-8226 leukemia
[42] = system: RXF 393 renal
[43] = system: SF-268 CNS
[44] = system: SF-295 CNS
[45] = system: SF-539 CNS
[46] = system: SK-MEL-28 melanoma
[47] = system: SK-MEL-5 melanoma
[48] = system: SK-OV-3 ovarian
[49] = system: SN12C renal
[50] = system: SNB-19 CNS
[51] = system: SNB-75 CNS
[52] = system: SR leukemia
[53] = system: SW-620 colon
[54] = system: T-47D breast
[55] = system: TK-10 renal
[56] = system: U251 glioblastoma
[57] = system: UACC-257 melanoma
[58] = system: UO-31 renal
[59] = system: UACC-62 melanoma

Structure (SMILES): Cc1noc(C)c1-c1ccc2[nH]c(=O)n3c2c1OC[C@@H]3c1ccccn1
- GI50 [1]: 0.749 µM
- TGI [1]: > 100 µM
- GI50 [2]: 0.42 µM
- TGI [2]: > 100 µM
- GI50 [3]: 0.656 µM
- TGI [3]: > 100 µM
- GI50 [4]: 1.22 µM
- TGI [4]: > 100 µM
- GI50 [5]: 0.293 µM
- TGI [5]: 25.2 µM
- GI50 [6]: 0.243 µM
- TGI [6]: > 100 µM
- GI50 [7]: 0.584 µM
- TGI [7]: > 100 µM
- GI50 [8]: 0.527 µM
- TGI [8]: > 100 µM
- GI50 [9]: 14.2 µM
- TGI [9]: > 100 µM
- GI50 [10]: > 100 µM
- TGI [10]: > 100 µM
- GI50 [11]: 0.127 µM
- TGI [11]: 2.11 µM
- GI50 [12]: 0.501 µM
- TGI [12]: > 100 µM
- GI50 [13]: 0.24 µM
- TGI [13]: 12 µM
- GI50 [14]: 0.0556 µM
- TGI [14]: 0.17 µM
- GI50 [15]: 0.304 µM
- TGI [15]: 62.2 µM
- GI50 [16]: 0.241 µM
- TGI [16]: > 100 µM
- GI50 [17]: 0.152 µM
- TGI [17]: 1.6 µM
- GI50 [18]: 0.371 µM
- TGI [18]: > 100 µM
- GI50 [19]: 0.532 µM
- TGI [19]: 53 µM
- GI50 [20]: 0.436 µM
- TGI [20]: > 100 µM
- GI50 [21]: 1.36 µM
- TGI [21]: > 100 µM
- GI50 [22]: 0.277 µM
- TGI [22]: 1.04 µM
- GI50 [23]: 0.72 µM
- TGI [23]: > 100 µM
- GI50 [24]: 0.398 µM
- TGI [24]: 32.3 µM
- GI50 [25]: 0.125 µM
- TGI [25]: > 100 µM
- GI50 [26]: 0.605 µM
- TGI [26]: > 100 µM
- GI50 [27]: 13.7 µM
- TGI [27]: > 100 µM
- GI50 [28]: 0.241 µM
- TGI [28]: 8.12 µM
- GI50 [29]: 0.421 µM
- TGI [29]: 11.9 µM
- GI50 [30]: 1.43 µM
- TGI [30]: > 100 µM
- GI50 [31]: 0.483 µM
- TGI [31]: > 100 µM
- GI50 [32]: 0.591 µM
- TGI [32]: > 100 µM
- GI50 [33]: 2.19 µM
- TGI [33]: > 100 µM
- GI50 [34]: 0.0766 µM
- TGI [34]: 4.8 µM
- GI50 [35]: 0.653 µM
- TGI [35]: 18.5 µM
- GI50 [36]: 0.227 µM
- TGI [36]: > 100 µM
- GI50 [37]: 0.107 µM
- TGI [37]: 0.495 µM
- GI50 [38]: 0.529 µM
- TGI [38]: > 100 µM
- GI50 [39]: 0.473 µM
- TGI [39]: > 100 µM
- GI50 [40]: 0.245 µM
- TGI [40]: > 100 µM
- GI50 [41]: 0.133 µM
- TGI [41]: 0.533 µM
- GI50 [42]: 0.483 µM
- TGI [42]: 11 µM
- GI50 [43]: 3.01 µM
- TGI [43]: > 100 µM
- GI50 [44]: 0.144 µM
- TGI [44]: 41.8 µM
- GI50 [45]: 0.449 µM
- TGI [45]: 8.79 µM
- GI50 [46]: 0.813 µM
- TGI [46]: > 100 µM
- GI50 [47]: 0.198 µM
- TGI [47]: 9.84 µM
- GI50 [48]: 0.244 µM
- TGI [48]: 21.3 µM
- GI50 [49]: 3.69 µM
- TGI [49]: > 100 µM
- GI50 [50]: 1.87 µM
- TGI [50]: > 100 µM
- GI50 [51]: 1.27 µM
- TGI [51]: > 100 µM
- GI50 [52]: 0.0523 µM
- TGI [52]: 2.04 µM
- GI50 [53]: > 100 µM
- TGI [53]: > 100 µM
- GI50 [54]: 0.318 µM
- TGI [54]: 47.8 µM
- GI50 [55]: 0.265 µM
- TGI [55]: 23.1 µM
- GI50 [56]: 2.56 µM
- TGI [56]: > 100 µM
- GI50 [57]: 0.925 µM
- TGI [57]: > 100 µM
- GI50 [58]: 0.722 µM
- TGI [58]: > 100 µM

Structure (SMILES): C=CC(=O)N1CCN(c2ncnc3c(F)c(-c4c(O)cccc4F)c(Cl)cc23)CC1
- GI50 [1]: 3.34 µM
- TGI [1]: 12.4 µM
- GI50 [2]: 2.05 µM
- TGI [2]: 6.37 µM
- GI50 [3]: 2.36 µM
- TGI [3]: 5.74 µM
- GI50 [4]: 2.27 µM
- TGI [4]: 5.89 µM
- GI50 [5]: 1.73 µM
- TGI [5]: 4.14 µM
- GI50 [6]: 3.07 µM
- TGI [6]: 12.9 µM
- GI50 [7]: 1.83 µM
- TGI [7]: 3.34 µM
- GI50 [8]: 2.33 µM
- TGI [8]: 5.19 µM
- GI50 [9]: 3.5 µM
- TGI [9]: 12.5 µM
- GI50 [10]: 5.74 µM
- TGI [10]: 18 µM
- GI50 [11]: 2.27 µM
- TGI [11]: 4.32 µM
- GI50 [13]: 2.5 µM
- TGI [13]: 6.08 µM
- GI50 [14]: 1.68 µM
- TGI [14]: 3.08 µM
- GI50 [15]: 1.21 µM
- TGI [15]: 4.8 µM
- GI50 [16]: 4.73 µM
- TGI [16]: 16.8 µM
- GI50 [17]: 1.71 µM
- TGI [17]: 3.87 µM
- GI50 [18]: 2.97 µM
- TGI [18]: 8.72 µM
- GI50 [19]: 3.5 µM
- TGI [19]: 11.8 µM
- GI50 [20]: 5.53 µM
- TGI [20]: 18.1 µM
- GI50 [21]: 2.92 µM
- TGI [21]: 9.85 µM
- GI50 [22]: 2.08 µM
- TGI [22]: 5.21 µM
- GI50 [23]: 1.98 µM
- TGI [23]: 4.68 µM
- GI50 [24]: 3.58 µM
- TGI [24]: 9.59 µM
- GI50 [25]: 2.95 µM
- TGI [25]: 9.01 µM
- GI50 [26]: 5.17 µM
- TGI [26]: 18.5 µM
- GI50 [27]: 3.91 µM
- TGI [27]: 13.9 µM
- GI50 [28]: 2.34 µM
- TGI [28]: 4.63 µM
- GI50 [29]: 2.08 µM
- TGI [29]: 3.62 µM
- GI50 [30]: 2.39 µM
- TGI [30]: 7.65 µM
- GI50 [31]: 0.0694 µM
- TGI [31]: 0.94 µM
- GI50 [32]: 3.22 µM
- TGI [32]: 10.3 µM
- GI50 [33]: 2.78 µM
- TGI [33]: 7.79 µM
- GI50 [34]: 3.1 µM
- TGI [34]: 8.43 µM
- GI50 [35]: 14 µM
- TGI [35]: 28.3 µM
- GI50 [36]: 1.83 µM
- TGI [36]: 3.9 µM
- GI50 [37]: 5.97 µM
- TGI [37]: 18.2 µM
- GI50 [38]: 3.66 µM
- TGI [38]: 11.9 µM
- GI50 [39]: 2.46 µM
- TGI [39]: 6.4 µM
- GI50 [40]: 2.64 µM
- TGI [40]: 8.13 µM
- GI50 [41]: 1.6 µM
- TGI [41]: 3 µM
- GI50 [42]: 1.91 µM
- TGI [42]: 4.03 µM
- GI50 [43]: 2.09 µM
- TGI [43]: 5.38 µM
- GI50 [44]: 2.97 µM
- TGI [44]: 8.83 µM
- GI50 [45]: 2.4 µM
- TGI [45]: 5.02 µM
- GI50 [46]: 3.17 µM
- TGI [46]: 13.7 µM
- GI50 [47]: 2.39 µM
- TGI [47]: 5.66 µM
- GI50 [48]: 4.14 µM
- TGI [48]: 16.1 µM
- GI50 [49]: 4.48 µM
- TGI [49]: 15.4 µM
- GI50 [50]: 4.08 µM
- TGI [50]: 14.9 µM
- GI50 [51]: 3.41 µM
- TGI [51]: 16.7 µM
- GI50 [52]: 1 µM
- TGI [52]: 2.18 µM
- GI50 [53]: 3.78 µM
- TGI [53]: 11.3 µM
- GI50 [54]: 6.31 µM
- TGI [54]: 18.4 µM
- GI50 [55]: 8.84 µM
- TGI [55]: 30.7 µM
- GI50 [57]: 3.65 µM
- TGI [57]: 9.18 µM
- GI50 [59]: 1.59 µM
- TGI [59]: 4.76 µM
- GI50 [58]: 3.58 µM
- TGI [58]: 12.5 µM
